“And” between values parts separate entries of the source, which are not always exact repeats. Identical values can stand only once.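 These data come from cells grown in 96-well plates and exposed to compound for 48 hours at five concentrations. GI50: concentration for 50% inhibition of growth. At the TGI there is no net growth.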
Tested on: MDA-MB-468 breast
Assay: DTP human tumour cell line panel, 48 h

O=C(COc1ccc(/C=C2\Oc3ccc4ccccc4c3C2=O)cc1)c1ccc([N+](=O)[O-])cc1
GI50: 1.07 µM | TGI: 3.05 µM

C[C@@H]1CC[C@H]2[C@@H](C)C(O)O[C@@H]3O[C@]4(C)CC[C@@H]1[C@]32OO4 (stereo not given in full)
GI50: 3.58 µM | TGI: 33.2 µM

Cc1cc(F)c(C(=O)Nc2cccc(-c3nncn3C(C)C)n2)cc1-n1cnc(C2CC2)c1
GI50: 7.76 µM | TGI: 83.3 µM

O=CC(OC(=O)c1ccccc1)C(OC(=O)c1ccccc1)C(COC(c1ccccc1)(c1ccccc1)c1ccccc1)OC(=O)c1ccccc1 (stereo not given)
GI50: 11.8 µM | TGI: 26.9 µM

CC/C=C\C[C@H]1C/C=C2/C(=O)C=C[C@H]2C/C=C\CCCC(=O)O1
GI50: 1.56 µM | TGI: 7.95 µM

Cc1cccc2c3c(sc12)C(c1ccc(F)cc1)C(C#N)=C(/N=C/c1ccc(Cl)cc1)O3 (stereo not given)
GI50: 0.383 µM | TGI: 12.6 µM

O=C(NNc1nc2cc(F)cc(F)c2n2cccc12)c1ccncn1
GI50: > 30 µM | TGI: > 30 µM

C[C@@H](Nc1nc(N[C@H](C)C(F)(F)F)nc(-c2cccc(Cl)n2)n1)C(F)(F)F
GI50: 41.9 µM | TGI: > 100 µM

Cc1c2cnccc2c(C)c2c1c1cc(O)ccc1n2C(C)C
GI50: 2.12 µM | TGI: 4.74 µM

C1=N[C@]23C(=N[C@H](N=C2NCc2ccco2)[C@]24N=CNC2=N[C@H]3N=C4NCc2ccco2)N1
GI50: 26.6 µM | TGI: > 100 µM

Nc1nc(N)c2c(n1)NC(c1sc(Cl)nc1Cl)CC(c1ccccc1)=N2 (stereo not given)
GI50: 2.12 µM | TGI: 8.48 µM

Cc1cccc2c(C3=C(c4cn(C)c5ccccc45)C(=O)NC3=O)cn(C)c12
GI50: 13.9 µM | TGI: > 25 µM

CN(C)c1ccc(C(=S)c2ccc(N(C)C)cc2)cc1
GI50: 2.05 µM | TGI: 8.21 µM

O=C(NC1CCN(Cc2ccccc2)CC1)c1cc(-c2cccnc2)nc2ccc(Cl)cc12
GI50: 4.48 µM | TGI: 57 µM

COc1ccccc1-n1cnc(N)c1C(=O)c1cc(OC)c(OC)c(OC)c1
GI50: 1.85 µM | TGI: 6.57 µM

CCOC(=O)/C(=C/CC/C(C)=C/CC/C(C)=C/CCc1ccoc1)CC(=O)N1CCCCC1
GI50: 2.11 µM | TGI: 7.26 µM

COc1ccc(C(=O)/C=C/c2sc(Cl)nc2Cl)cc1
GI50: 1.38 µM | TGI: 3.51 µM

Cc1nnc(C[C@@H]2C=C(c3ccc(Cl)cc3)c3ccccc3-n3c(C)nnc32)o1
GI50: 0.745 µM | TGI: 22.8 µM

COc1cc2c(Oc3ccc(NC(=O)C4(C(=O)Nc5ccc(F)cc5)CC4)cc3F)ccnc2cc1OCCCN1CCOCC1
GI50: 0.92 µM and 1.05 µM | TGI: 2.29 µM and 3.16 µM

CN1CCN(CCCOc2cccc3nc(Nc4cc(Cl)cc(Cl)c4)ccc23)CC1
GI50: 1.69 µM | TGI: 3.22 µM

Clc1ccc(-c2cc(-c3ccccc3)nc(N3CCN(CCCNc4ccnc5cc(Cl)ccc45)CC3)n2)cc1
GI50: 0.352 µM | TGI: 1.61 µM

CNC(=O)c1cc(Oc2ccc3nc(NC(=O)Nc4ccc(CN5CCOCC5)c(C(F)(F)F)c4)sc3c2)ccn1
GI50: 1.45 µM | TGI: 4.95 µM

COc1ccccc1C1C2=C(COC2=O)Oc2cc3c(cc21)OCO3 (stereo not given)
GI50: 5.08 µM | TGI: > 100 µM

CCN(C(=O)N1CCN(c2cc3c(cc2F)c(=O)c(C(=O)O)cn3C2CC2)CC1)c1nc(-c2ccccc2)cs1
GI50: 2.52 µM | TGI: 8.82 µM

NC(N)=NN=c1c(=O)c2ccccc2c1=O
GI50: 16.4 µM | TGI: 30.7 µM

Oc1ccc(NC(=S)Nc2ccccc2)cc1
GI50: > 100 µM | TGI: > 100 µM

C=CC(=O)N[C@@H]1CN(c2nc(Nc3cn(C)nc3OC)c3ncn(C)c3n2)C[C@H]1F
GI50: 0.0256 µM | TGI: 0.265 µM

COc1ccc(-c2nn(-c3cccc(Cl)c3)cc2/C=C2\NC(=S)N(c3ccc(Cl)cc3)C2=O)cc1
GI50: 3.03 µM | TGI: 6.89 µM

C[C@@H](O)[C@@H](C)Oc1nc(Nc2ccc(S(=N)(=O)C3CC3)cc2)ncc1C(F)(F)F (stereo not given in full)
GI50: 0.023 µM | TGI: 0.0615 µM

O=C(Nc1ccc(OS(=O)(=O)c2ccc(F)cc2)cc1)C12CC3CC(CC(C3)C1)C2
GI50: 1.33 µM | TGI: > 100 µM
